The source of these data is patent US7074459B2, “Method for preserving wood” (priority 2003, dated 2006).

Holding throughout (type): cell-based
Assay [1] concerns Escherichia coli (gram negative). Kind of assay: Bacteriostatic activity in Oxoid No. 2 nutrient broth. The following applies: 0.1 wt. %, 48 hours incubation. On the procedure: (§1) The bacteriostatic activity of several complexes was investigated by testing at 0.1 wt. % using Oxoid No. 2 nutrient broth and inoculating the broth with 1 ml of a 24 hour broth culture of the test organisms. After incubation at the optimum growth temperature of the organism for 48 hours.
(§2) The organisms tested were:
Escherichia coli (gram negative)

Assay [2] concerns Pseudomonas aeruginosa (gram negative). The assay is described as above. The following applies: 0.1 wt. %, 48 hours incubation. On the procedure:
as §1, §2
Pseudomonas aeruginosa (gram negative)

Assay [3] relates to brown-rot fungus Gloeophyllum trabeum. Kind of assay: ASTM 1413 standard soil block test, 12 weeks. As to conditions: 1% treatment, unleached, 12-week soil block test with G. trabeum. On the procedure: The following five wood preservatives were prepared for testing according to ASTM Stanard D 1413. • 1. chlorhexidine (CH)—Omadine^a 1:2 complex • 2. Polyhexamethylene biguanide—Omadine 1:1 complex • 3. Bardac^b 2250—Omadine 1:1 complex • 4. Tetrakis(hydroxylmethyl)phosphonium 0 Omadine 1:1 complex • 5. B-55^c polyionene—Omadine 1:2 complex • a) Omadine is 2-mercapto pyridine N-oxide • b) Barclac 2250 is […] • c) […] is poly(oxyethylene(dimethyliminio)ethylene(dimethylimino)ethylene dichloride Biological Evaluation
The ASTM 1413 standard soil block test was performed (ASTM 1999) Five soil bottles of each treatment and solution concentration (plus untreated controls) were exposed to the brown-rot fungus Gloeophyllum trabeum for 12 weeks. Two soil bottles with no fungus were also run to monitor any leaching of chemicals. Specimens were removed from test after 12 weeks exposure and conditioned until constant weight in the conditioning room (27° C./30°RH). The extent of decay was determined by weight loss.

For assay [4], the system named is Staphylococcus aureous (gram positive). Kind of assay: Bacteriostatic activity in Oxoid No. 2 nutrient broth. As to conditions: 0.1 wt. %, 48 hours incubation. The method, then: as §1, §2
Staphylococcus aureous (gram positive)

Regarding `N=C(NCCCCCCNC(=N)NC(=N)Nc1ccc(Cl)cc1)NC(=N)Nc1ccc(Cl)cc1.On1ccccc1=S.On1ccccc1=S` [Compound 6, chlorhexidinium di(2-mercapto-pyridine N-oxides)], the bacteriostatic activity entry in assay [1], in assay [2] and in assay [4] was “bacteriostatic” throughout. The “Wt. Loss % (Fungus)” value in assay [3] is listed as 1.57%.

In the case of `OC[P+](CO)(CO)CO.[O-][n+]1ccccc1[S-]` [Compound 8], the bacteriostatic activity result in assay [1], in assay [2] and in assay [4] was “bacteriostatic” throughout. Further, the “Wt. Loss % (Fungus)” value in assay [3] is given as −0.07%.

For the compound `N=C(NCCCCCCNC(=N)NC(=N)Nc1ccc(Cl)cc1)NC(=N)Nc1ccc(Cl)cc1.Oc1cc(Cl)ccc1Oc1ccc(Cl)cc1Cl.Oc1cc(Cl)ccc1Oc1ccc(Cl)cc1Cl` [Compound 10, chlorhexidinium di (triclosante)], the bacteriostatic activity entry in assay [1], in assay [2] and in assay [4] was “bacteriostatic” each time.

In the case of “didecyldimethyl ammonium 2-mercapto-benzothiazole [Compound 5]”, the bacteriostatic activity entry in assay [1], in assay [2] and in assay [4] was “bacteriostatic” each time.
